What was measured:
[1] = Stability of BRAP under acidic condition (1H NMR); format: physicochemical; conditions: pH 3.0, 72 hours of incubation
Experimental: FIG. 2, comprising FIGS. 2A-2C, illustrates H2O2 scavenging effects of BRAP. FIG. 2A: Exemplary change of UV-absorbance of BRAP in the presence of H2O2. FIG. 2B: H2O2 scavenging by various concentrations of BRAP. H2O2 solution (10 μM) was mixed with HBA or BRAP for 1 min, and the chemiluminescent intensity was measured by adding diphenyl oxalate (10 mg) and rubrene (1 mg). *p<0.01, **p<0.001 relative to H2O2 only group (n=4/group). FIG. 2C: ^1H NMR spectrum of BRAP under acidic condition (pH=3.0) after 72 h.
Without wishing to be limited by any theory, BRAP could scavenge H2O2 during its H2O2-mediated boronate oxidation. This possibility was investigated using peroxalate chemiluminescence. Peroxalate chemiluminescence has been used as a versatile tool for the detection of a variety of chemical species including fluorescent molecules and H2O2 because of its excellent specificity and simplicity (Hadd, et al., 1999, J. Chem. Educ. 76:1237; Lee, et al., 2011, Bull. Korean Chem. Soc. 32:2187). […] A majority of H2O2 was scavenged by the same concentration of BRAP within 1 minutes.

iNOS = iNOS level in LPS-stimulated macrophage cells; format: cell-based, mouse
Experimental: FIG. 4, comprising FIGS. 4A-4F, is a set of graphs, bar graphs and images illustrating anti-oxidant and anti-inflammatory effects of BRAP in vitro. […] The generation of ROS was monitored by flow cytometry as an indicator of DCF fluorescence. Fluorescence was analyzed in 10,000 cells with excitation at 480 nm and emission at 530 nm. FIG. 4C: Protective effect of BRAP on H2O2— stimulated adult rat cardiomyocytes. V=vehicle, *<0.05 vs. V+H2O2 (n=4). […] (n=4/group).
The anti-inflammatory effects of BRAP on LPS-stimulated cells were investigated by measuring the level of inflammatory cytokines such as TNF-α (tumor necrosis factor-alpha) and iNOS (inducible nitric oxide synthases) (FIGS. 4E-4F). […] These observations indicate that BRAP, as well as BRAP-encapsulated PLGA microparticles, is able to scavenge overproduced H2O2 and serve as a H2O2-activable anti-oxidant. Further, the enhanced anti-oxidant activity of BRAP is derived from the combined effects of H2O2-scavenging boronic esters and HBA generation after H2O2-mediated boronate oxidation.

[2] = tested on: mouse embryonic fibroblast (NIH 3T3) cells; assay: MTT cytotoxicity assay, NIH 3T3; format: cell-based; conditions: concentrations as high as 5 mM, 24 hours of incubation
Experimental: FIG. 8, comprising FIGS. 8A-8B, is a set of bar graphs illustrating biocompatibility profiles of BRAP assessed by MTT assay in human embryonic kidney (HEK 293) cells (FIG. 8A) and mouse embryonic fibroblast (NIH 3T3) cells (FIG. 8B).
3-(4,5-Dimethylthiazil-2yl)-2,5-diphenyltetrazolium bromide (MTT) assay was performed to evaluate the cytotoxicity of BRAP. NIH 3T3 cells were cultured at a density of 1×10^5 cells/well in a 24 well plate, and RAW 264.7 cells and HEK cells were also cultured at a density of 2×10^5 cells/well in a 24 well plate. Cells were incubated for 24 hours to reach ˜80% confluency. Cells were treated with various amount of BRAP and incubated for 24 hours. Each well was given 100 μL of MTT solution and was incubated for 4 h. 200 μL of dimethyl sulfoxide (DMSO) were added to each well to dissolve the resulting formazan crystals. After 10 min incubation, the absorbance at 570 nm was measured using a microplate reader (Biotek Instruments, Winooski, Vt.). The cell viability was determined by comparing the absorbance of BRAP treated cells that of control cells.

hepatic I/R injury = assay: Mouse model of hepatic I/R injury; format: in vivo; conditions: ip at reperfusion
Experimental: FIG. 5, comprising FIGS. 5A-5D, is a set of images and bar graphs illustrating beneficial effects of BRAP in hepatic I/R (1 hour ischemia/12 hour reperfusion) injury. FIG. 5A: Hematoxylin and eosin (H/E) staining, DHE staining, and TUNEL staining of mouse liver after injection with HBA or BRAP. FIGS. 5B-5D: Quantitative analysis of serum ALT levels (FIG. 5B), cleaved caspase-3 protein expression (FIG. 5C), and TNF-α protein expression (FIG. 5D) after I/R injury. *p<0.01 relative to Veh I/R. †p<0.05 relative to HBA I/R (n=3˜4/group). Actin protein expression was used as an internal control for protein loading.
Experiments to evaluate whether BRAP reduces ROS generation and inhibits apoptosis were performed in a mouse model of […] I/R injuries. I/R was induced first by 1 hour of ligation of hepatic artery and portal vein followed by reperfusion of hepatic artery. BRAP or HBA was then administrated intraperitoneally (ip) at the time of reperfusion.
Hepatic I/R surgery was performed in 12 week-old male mice. Briefly, mice were anaesthetized, and midline incision was performed for laparotomy. After identifying the portal triad and biliary tree, the main trunk of hepatic artery and portal vein were clamped with vascular clip except for the vasculatures to the right lower lobe to achieve ischemic injury to approximately 70% of the liver. After 1 hour of ischemia, reperfusion was achieved by releasing the vascular clip. No vascular clamp was done for the sham group of mice.
For liver apoptosis assay, terminal deoxynucleotidyl transferase dUTP nick end labeling (TUNEL) staining was performed using a DeadEnd™ Fluorometric TUNEL kit (Promega, Madison, Wis.). Tissue sections were stained for nuclei (4′,6-diamidino-2-phenylindole (DAPI) staining) and apoptotic nuclei (TUNEL staining) and analyzed using a confocal laser scanning microscope. For heart tissues, TUNEL staining was performed using in situ cell death detection Kit, fluorescein (Roche Applied Science, Indianapolis, Ind.). To distinguish cardiomyocyte from non-cardiomyocyte nuclei, triple stain for nuclei (DAPI staining), apoptotic nuclei (TUNEL staining), and cardiomyocytes (α-Actinin staining) was used, and the stained sections were analyzed using confocal microscopy. A minimum of ˜10 high power fields with ˜2000 nuclei/field were counted for each sample.
Heart tissues were collected for molecular analyses were performed in Bae, et al., 2010, Am J Physiol Heart Circ Physiol 299:H1374. For RT-PCR ribosomal 18S primers acted as internal controls and all RT-PCR signals were normalized to the 18S signal of the corresponding RT products. For Western blot analysis, the protein content was measured using BCA assay. Actin protein expression was used as an internal control for protein loading.
The optimal cutting temperature (OCT)-embedded tissues were fixed in 4% paraformaldehyde. Tissue sections were incubated with 5 μM dihydroethidium (DHE, Sigma-Aldrich) at 37° C. for 30 min in a humidified chamber protected from light. Then, 4′,6-diamidino-2-phenylindole (DAPI) was applied. Images were acquired by confocal fluorescence microscope.

Question: For `CC1(CO)COB(c2ccc(CO)cc2)OC1` [BRAP, (4-(5-(hydroxymethyl)-5-methyl-1,3,2-dioxaborinan-2-yl)phenyl)methanol], which “stability in acidic environment” value [1] is on record?
Answer: not influenced

Question: What about the iNOS level (iNOS) of the same compound?
Answer: significantly suppressing

Question: What about the “cytotoxicity (MTT)” value [2] of the same compound?
Answer: no significant cytotoxicity

Question: And the “ROS generation (DHE staining) in liver” value (hepatic I/R injury)?
Answer: higher inhibitory effects on ROS generation than HBA

Question: What about the “protection from I/R-induced liver damage (serum ALT)” value (hepatic I/R injury) of the same compound?
Answer: concentration-dependent protection

Question: What about the “hepatic damages (histology, H/E)” value (hepatic I/R injury; 1 hour ischemia/12 hour reperfusion, same dose of HBA and BRAP) of the same compound?
Answer: significant attenuation

Question: And the TNF-α protein expression (hepatic I/R injury; same dose of HBA and BRAP)?
Answer: significant inhibition

Question: What about the “cleaved caspase-3 protein expression” value (hepatic I/R injury; same dose of HBA and BRAP) of the same compound?
Answer: significant inhibition

Question: What about the “hepatic apoptosis (TUNEL)” value (hepatic I/R injury; same dose of HBA and BRAP) of the same compound?
Answer: significantly greater anti-apoptotic effects than HBA

From patent publication US10370391B2, “Hydrogen peroxide-activable, anti-oxidant compounds and methods using same” (Beth Israel Deaconess Medical Center, Inc., priority 2014, dated 2019)
